Data published in patent publication US12678501B2, “Modulating permeability of the blood cerebrospinal fluid barrier” (MEMORIAL SLOAN-KETTERING CANCER CENTER, priority 2015, dated 2026).
Blank lines part the entries; values can stand above or below the molecule they belong to.

Assays:
MDA231-LeptoM cells = experiment: Leptomeningeal metastasis model, MDA231-LeptoM cells into cisterna magna, BLI; assay type: in vivo, mouse; settings: vs vehicle; for tumor growth within the leptomeninges (bioluminescent imaging): 2,000 MDA LeptoM cells into cisterna magna
Protocol: (§1) FIG. 11A-11C. C3aR as a therapeutic target in leptomeningeal metastasis. (A) 2,000 MDA231-LeptoM cells were introduced into the cisterna magna on day 0. Mice were treated with 10 mg/kg C3aR agonist (Ag), 10 mg/kg antagonist (Ant) or vehicle (Veh) I.P. twice weekly, tumor cell growth was monitored by BLI. n=10 mice per group. ****p<0.0001 (B) Survival analysis of mice treated in (A). (C) 2,000 MDA231-LeptoM, PC9-LeptoM, HCC1954-LeptoM or LCC-LeptoM cells were introduced into the CSF on day 0 and treated with Veh or Ant as described in (A). n=10 mice per group. BLI on day 14 is illustrated. *p<0.05; **p<0.01; *** p<0.001.
In light of the cancer cell dependence on C3 for growth within the leptomeningeal space, as well as C3aR's importance in maintenance of CP barrier function, we elected to assay C3aR antagonist as well as agonists in models of leptomeningeal metastasis. First, 2,000 MDA LeptoM were injected into the cisterna magna of recipient mice. Next, treatment with either vehicle, C3aR agonist or antagonist was initiated. Tumor growth was followed with bioluminescent imaging FIG. 11A.
(§2) Cells corresponding to each of these models were inoculated into the leptomeningeal space of recipient mice on Day 0. Daily systemic treatment with C3aR antagonist SB290157 began on Day 1. Bioluminescent imaging to quantitate tumor cell growth is shown for each of the models, FIG. 11C. […] In this approach, maintenance of B-CSF-B integrity inhibits cancer cell survival by inhibiting cancer cell access to plasma components, including protein, growth factors and metabolic intermediates.

HCC1954-LeptoM cells = experiment: Leptomeningeal metastasis model, HCC1954-LeptoM cells, BLI; assay type: in vivo, mouse; settings: systemic treatment from Day 1, BLI on day 14, vs vehicle
Protocol: as §1, §2

PC9-LeptoM cells = experiment: Leptomeningeal metastasis model, PC9-LeptoM cells, BLI; assay type: in vivo, mouse; settings: systemic treatment from Day 1, BLI on day 14, vs vehicle
Protocol: as §1, §2

LLC-LeptoM cells = experiment: Leptomeningeal metastasis model, LLC-LeptoM cells, BLI; assay type: in vivo, mouse; settings: systemic treatment from Day 1, BLI on day 14, vs vehicle
Protocol: as §1, §2

[1] = tested on: human choroid plexus epithelial cells (HuCPEpi); experiment: Trans-epithelial electrical resistance (TEER) in in vitro model of B-CSF-B; assay type: cell-based; settings: HuCPEpithelial cells on laminin-coated transwells, after addition of recombinant C3a
Text: (§3) FIG. 7A-7F. C3aR activation alters B-CSF-barrier integrity. (A) Immunofluorescence of mouse choroid plexus for C3aR (red) and the apically expressed SPAK (green). (B) Trans-epithelial resistance in response to C3a in an in vitro model of B-CSF-B employing human choroid plexus epithelial cells (HuCPEpi). (C) Conditioned medium from MDA231 Parental cells (green) supplemented with recombinant mouse C3a (open circles) or vehicle (closed circles) was used to treat the monolayer prior to TEER measurements. (D) Conditioned medium from MDA231 LeptoM cells was not treated with antibody (closed circle), or immunodepleted with anti-C3 (open circles) or IgG control (black squares) prior to TEER measurements. (E) Mice (C3aR^+/+ or ^−/−) were parenterally pretreated with recombinant mouse C3a or vehicle prior to intracardiac infusion of mixed fluorescently labeled dextrans. 30 minutes later, CSF and blood were sampled and analyzed by fluorimetry. In the bar graphs, for each dextran size, fluorescence in animals treated with rmC3a is represented by the bar on the right (vehicle represented by the bar on the left). (F) Mouse choroid plexus treated with C3a or vehicle for 2 hours prior to fixation and staining for ZO-1 and Claudin.
To address the hypothesis that C3aR might function similarly in the choroid plexus, we first established the presence of C3aR on choroid plexus epithelium (FIG. 7A). […]

C3aR = target: T1, C3aR (Mus musculus, UniProt O09047); experiment: Passage of fluorescently labeled dextrans from blood to CSF in vivo; settings: dextrans of 40 kDa and smaller; CSF sampled 30 minutes after intracardiac dextran; C3aR-dependent (wild type vs knockout mice)
T1 construct: from tissue; host or cells: living mice (in vivo)
T1 sequence (O09047 1-477): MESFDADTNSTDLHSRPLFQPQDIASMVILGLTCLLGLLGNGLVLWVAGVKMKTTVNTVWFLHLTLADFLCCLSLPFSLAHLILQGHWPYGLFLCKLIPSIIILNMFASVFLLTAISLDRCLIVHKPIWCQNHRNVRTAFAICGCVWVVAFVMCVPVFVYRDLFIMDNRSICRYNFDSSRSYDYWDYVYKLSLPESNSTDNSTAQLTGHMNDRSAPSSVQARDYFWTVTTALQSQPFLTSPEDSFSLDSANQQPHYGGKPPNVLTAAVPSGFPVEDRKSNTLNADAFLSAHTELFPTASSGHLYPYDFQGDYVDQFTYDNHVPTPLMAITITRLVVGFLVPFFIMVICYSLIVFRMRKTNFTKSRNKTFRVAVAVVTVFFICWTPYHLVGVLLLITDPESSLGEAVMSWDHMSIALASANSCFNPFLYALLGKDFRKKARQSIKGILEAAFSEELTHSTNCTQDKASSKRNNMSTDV
Text: as §3, with “(F) Mouse choroid plexus treated with C3a or vehicle for 2 hours prior to fixation and staining for ZO-1 and Claudin.” left out
(§4) The passage of larger molecules was assessed through the use of fluorescently labeled Dextran passage in vivo. […] Thirty minutes after this treatment, CSF was sampled by cisternal tap, and presence of the derivatized dextran was assayed by fluorescence. […]

[2] = tested on: choroid plexus epithelial cells; experiment: Tight junction staining (ZO-1, claudin immunofluorescence) of choroid plexus; settings: mouse choroid plexus treated 2 hours prior to fixation
Text: as §3, with “(F) Mouse choroid plexus treated with C3a or vehicle for 2 hours prior to fixation and staining for ZO-1 and Claudin.” left out
as §4

[3] = Amphiregulin ELISA in CSF and plasma after parenteral C3a; assay type: in vivo; settings: mouse models, after parenteral administration
Text: FIG. 10A-10D. C3 conditioned CSF by opening the blood-CSF-barrier. (A) Commercial dot-blot array was employed to measure proteins present in CSF of two patients without leptomeningeal metastasis, who later developed leptomeningeal metastasis. […] (B) LLC-LeptoM cells instilled into the cisterna magna of C3aR wild-type (^+/+) or knock-out (^−/−) syngenic mice. Tumor growth was monitored by BLI. (C) ELISA for amphiregulin of CSF from suspected of leptomeningeal metastasis. Final clinical diagnosis is indicated. (D) Mice were parenterally pretreated with recombinant mouse […] or vehicle (green) as described in FIG. 7E. Amphiregulin was measured by ELISA in CSF and plasma.
Leptomeningeal metastasis alters the composition of the CSF (FIG. 10A), including the growth factor amphiregulin (FIG. 10C). Cancer cell growth within the leptomeningeal space is improved in the presence of the C3aR in our models of leptomeningeal metastasis (FIG. 10B) after parenteral administration of C3a, serum amphiregulin is elevated within the CSF in mouse models.

Molecule: O=C(NC1CCN(C(=O)CCc2cccnc2)CC1)C(c1ccccc1)C1CCCCC1 (stereo not drawn) [C3aR agonist, α-cyclohexyl-N-[1-[1-oxo-3-(3-pyridinyl)propyl]-4-piperidinyl]-benzeneacetamide]
- tumor growth within the leptomeninges (bioluminescent imaging) (MDA231-LeptoM cells; 10 mg/kg I.P. twice weekly): accelerated

Molecule: N=C(N)NCCC[C@H](NC(=O)COCC(c1ccccc1)c1ccccc1)C(=O)O [SB290157, N2-[2-(2,2-diphenylethoxy)acetyl]-L-arginine, 2,2,2-trifluoroacetate]
- tumor growth within the leptomeninges (bioluminescent imaging) (MDA231-LeptoM cells; 10 mg/kg I.P. twice weekly): slowed
- leptomeningeal tumor growth (BLI) (MDA231-LeptoM cells; MDA231 model, systemic treatment from Day 1, BLI on day 14): less leptomeningeal tumor growth
- survival (MDA231-LeptoM cells; MDA LeptoM model, 10 mg/kg I.P. twice weekly): survival benefit
- leptomeningeal tumor growth (BLI) (HCC1954-LeptoM cells): less leptomeningeal tumor growth
- leptomeningeal tumor growth (BLI) (PC9-LeptoM cells): less leptomeningeal tumor growth
- leptomeningeal tumor growth (BLI) (LLC-LeptoM cells): less leptomeningeal tumor growth

- passage of dextrans from blood to CSF (C3aR): increased
Molecule: recombinant C3a: recombinant C3a, hydrolysis fragment of complement C3, ligand of the C3aR receptor
- resistance across the monolayer (TEER) [1]: reduced
- tight junctions between choroid plexus epithelial cells (claudin immunofluorescence) [2]: disorganization of tight junctions
- amphiregulin within the CSF [3]: elevated
